Data taken from ChEMBL document CHEMBL1201862, “PubChem BioAssay data set” (2004).
Values joined by “and” are separate entries in the source; they are usually repeats but may differ in a detail not shown here. Equal values may be shown once. Active and inactive are the calls of the source.

How the values were obtained:
[1] = THP-1 cell cytotoxicity, dose response, cytotoxicity control for non-replicating M. tuberculosis project (AID 489025); type: functional
cells = type: functional
Cytochrome P450 3A4 [2] = target: T1, Cytochrome P450 3A4 (Homo sapiens, UniProt P08684);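 note: CYP3A4 tested as one member of a cytochrome P450 panel screen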
Coagulation factor XII = target: T2, Coagulation factor XII (Homo sapiens, UniProt P00748); type: functional;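 note: activated factor XIIa alpha cleaving a fluorogenic AMC peptide substrate; inhibitor potency from loss of enzyme activity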
T2 sequence (P00748 whole entry): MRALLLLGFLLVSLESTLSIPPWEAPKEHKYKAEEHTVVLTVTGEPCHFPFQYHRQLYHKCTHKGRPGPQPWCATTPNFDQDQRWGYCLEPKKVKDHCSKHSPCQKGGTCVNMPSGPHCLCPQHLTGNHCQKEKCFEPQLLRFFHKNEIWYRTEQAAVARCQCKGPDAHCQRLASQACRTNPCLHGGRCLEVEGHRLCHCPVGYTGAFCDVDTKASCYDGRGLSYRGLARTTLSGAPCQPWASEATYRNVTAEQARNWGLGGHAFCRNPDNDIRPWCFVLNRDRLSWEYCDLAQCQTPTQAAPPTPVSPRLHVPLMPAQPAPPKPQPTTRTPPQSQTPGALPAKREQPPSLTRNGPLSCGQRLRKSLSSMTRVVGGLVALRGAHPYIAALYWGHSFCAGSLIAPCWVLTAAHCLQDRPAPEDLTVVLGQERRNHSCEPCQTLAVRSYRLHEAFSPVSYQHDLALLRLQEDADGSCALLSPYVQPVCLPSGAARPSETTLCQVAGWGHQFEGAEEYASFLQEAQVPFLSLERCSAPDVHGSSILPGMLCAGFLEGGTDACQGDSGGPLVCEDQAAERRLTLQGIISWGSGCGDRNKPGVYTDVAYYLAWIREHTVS

[3] = target: Glucose-6-phosphate 1-dehydrogenase (Homo sapiens, UniProt P11413); assay: inhibition of Homo sapiens G6PD, dose series – biochemical, fluorescence, selectivity assay for P. falciparum G6PD inhibitor project, dose response (AID 504792); type: functional
Vero = assay: cells; type: functional; conditions: Chlorocebus sabaeus
[4] = target: T3, Short transient receptor potential channel 4 (Mus musculus, UniProt Q9QUQ5); assay: block of DAMGO-driven TRPC4 calcium entry – cell-based, HEK293 TRPC4/mu-opioid, Fluo-4 calcium, dose response (AID 434942); type: functional;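 note: potency of inhibitors blocking the TRPC4 calcium response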
T3 sequence (Q9QUQ5 whole entry): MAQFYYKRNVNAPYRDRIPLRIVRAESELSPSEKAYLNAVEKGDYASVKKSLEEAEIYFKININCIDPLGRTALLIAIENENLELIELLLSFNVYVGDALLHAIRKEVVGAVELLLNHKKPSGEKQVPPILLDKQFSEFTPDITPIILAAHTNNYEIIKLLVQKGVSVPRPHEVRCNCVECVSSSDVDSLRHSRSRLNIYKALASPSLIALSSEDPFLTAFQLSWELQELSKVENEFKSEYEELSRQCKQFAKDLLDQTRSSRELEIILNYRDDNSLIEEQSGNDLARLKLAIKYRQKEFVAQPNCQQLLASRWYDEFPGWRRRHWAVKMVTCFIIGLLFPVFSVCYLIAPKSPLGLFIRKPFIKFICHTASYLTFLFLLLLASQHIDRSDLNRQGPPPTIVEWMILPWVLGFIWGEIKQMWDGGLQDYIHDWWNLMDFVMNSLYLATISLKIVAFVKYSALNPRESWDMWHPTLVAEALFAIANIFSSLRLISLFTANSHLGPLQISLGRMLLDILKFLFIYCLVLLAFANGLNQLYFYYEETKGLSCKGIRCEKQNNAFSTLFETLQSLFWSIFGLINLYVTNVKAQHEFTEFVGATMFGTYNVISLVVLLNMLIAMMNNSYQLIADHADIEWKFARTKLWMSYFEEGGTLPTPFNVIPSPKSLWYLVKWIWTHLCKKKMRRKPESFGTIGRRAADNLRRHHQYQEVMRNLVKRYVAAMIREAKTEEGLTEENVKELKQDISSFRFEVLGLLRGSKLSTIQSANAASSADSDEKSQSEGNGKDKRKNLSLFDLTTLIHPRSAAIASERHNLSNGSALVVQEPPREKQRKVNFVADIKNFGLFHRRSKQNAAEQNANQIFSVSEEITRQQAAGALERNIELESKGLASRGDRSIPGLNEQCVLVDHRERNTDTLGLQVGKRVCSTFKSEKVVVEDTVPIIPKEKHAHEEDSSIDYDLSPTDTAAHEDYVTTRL

Cytochrome P450 2D6 = Cytochrome P450 2D6 (Homo sapiens, UniProt P10635);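 note: CYP2D6 member of a cytochrome P450 panel assay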
Cytochrome P450 3A4 [5] = target: T1, Cytochrome P450 3A4; remark: listed apart in the source
[6] = target: T3, Short transient receptor potential channel 4; assay: calcium entry via TRPC4 opening agents – cell-based, HEK293 TRPC4/mu-opioid, Fluo-4 calcium, dose response (AID 434937); type: functional
[7] = target: Luciferin 4-monooxygenase (Photinus pyralis, UniProt P08659); assay: inhibition of purified Photinus pyralis luciferase – biochemical, luminescence, dose response (AID 1891)
[8] = Luminescence Cell-Based Dose Confirmation HTS to Identify Inhibitors of Platelet Dense Granule Release. [Related pubchem assays: 1663 (Primary HTS), 1678 (Summary of Project)]; type: functional

T1 sequence (P08684 whole entry): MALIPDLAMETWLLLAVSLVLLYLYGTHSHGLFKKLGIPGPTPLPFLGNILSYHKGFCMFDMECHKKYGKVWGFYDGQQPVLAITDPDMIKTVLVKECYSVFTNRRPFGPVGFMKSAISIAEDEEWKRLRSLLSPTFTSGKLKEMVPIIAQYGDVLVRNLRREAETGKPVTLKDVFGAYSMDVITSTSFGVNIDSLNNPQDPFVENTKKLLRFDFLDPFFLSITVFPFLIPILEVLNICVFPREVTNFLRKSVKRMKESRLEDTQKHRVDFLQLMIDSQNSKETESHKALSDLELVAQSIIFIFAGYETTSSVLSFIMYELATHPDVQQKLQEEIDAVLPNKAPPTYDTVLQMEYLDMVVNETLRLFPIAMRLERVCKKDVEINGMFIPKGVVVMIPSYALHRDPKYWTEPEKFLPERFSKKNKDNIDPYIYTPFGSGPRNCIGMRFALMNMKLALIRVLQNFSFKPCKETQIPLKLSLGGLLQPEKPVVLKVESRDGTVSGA
Chain of Cytochrome P450 2D6 (P10635 whole entry): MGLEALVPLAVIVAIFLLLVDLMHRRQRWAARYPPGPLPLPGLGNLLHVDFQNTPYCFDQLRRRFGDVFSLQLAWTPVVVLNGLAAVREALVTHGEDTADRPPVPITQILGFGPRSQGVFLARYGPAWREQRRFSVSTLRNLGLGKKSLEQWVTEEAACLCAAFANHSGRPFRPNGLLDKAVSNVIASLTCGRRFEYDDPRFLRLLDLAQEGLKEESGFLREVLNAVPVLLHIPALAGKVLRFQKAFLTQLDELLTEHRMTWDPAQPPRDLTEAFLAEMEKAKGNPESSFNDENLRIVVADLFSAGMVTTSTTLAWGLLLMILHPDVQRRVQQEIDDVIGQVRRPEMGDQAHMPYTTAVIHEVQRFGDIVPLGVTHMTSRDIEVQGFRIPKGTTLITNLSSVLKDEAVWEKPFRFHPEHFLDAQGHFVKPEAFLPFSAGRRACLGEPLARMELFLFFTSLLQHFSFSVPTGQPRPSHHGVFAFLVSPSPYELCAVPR
Chain of Glucose-6-phosphate 1-dehydrogenase (P11413 whole entry): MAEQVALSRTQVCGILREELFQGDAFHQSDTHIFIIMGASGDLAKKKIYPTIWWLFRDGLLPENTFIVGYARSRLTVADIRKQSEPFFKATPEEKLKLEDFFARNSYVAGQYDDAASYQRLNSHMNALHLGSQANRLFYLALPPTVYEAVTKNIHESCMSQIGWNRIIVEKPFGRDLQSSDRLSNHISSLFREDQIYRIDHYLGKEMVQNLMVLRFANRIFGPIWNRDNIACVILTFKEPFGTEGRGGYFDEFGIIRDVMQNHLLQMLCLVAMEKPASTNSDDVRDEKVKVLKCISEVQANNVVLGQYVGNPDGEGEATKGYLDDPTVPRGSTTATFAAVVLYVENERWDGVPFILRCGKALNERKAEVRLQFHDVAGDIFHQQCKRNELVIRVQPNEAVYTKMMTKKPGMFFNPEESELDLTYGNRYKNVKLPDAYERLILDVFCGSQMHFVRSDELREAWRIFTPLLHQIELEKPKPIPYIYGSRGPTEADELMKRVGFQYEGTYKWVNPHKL
Chain of Luciferin 4-monooxygenase (P08659 whole entry): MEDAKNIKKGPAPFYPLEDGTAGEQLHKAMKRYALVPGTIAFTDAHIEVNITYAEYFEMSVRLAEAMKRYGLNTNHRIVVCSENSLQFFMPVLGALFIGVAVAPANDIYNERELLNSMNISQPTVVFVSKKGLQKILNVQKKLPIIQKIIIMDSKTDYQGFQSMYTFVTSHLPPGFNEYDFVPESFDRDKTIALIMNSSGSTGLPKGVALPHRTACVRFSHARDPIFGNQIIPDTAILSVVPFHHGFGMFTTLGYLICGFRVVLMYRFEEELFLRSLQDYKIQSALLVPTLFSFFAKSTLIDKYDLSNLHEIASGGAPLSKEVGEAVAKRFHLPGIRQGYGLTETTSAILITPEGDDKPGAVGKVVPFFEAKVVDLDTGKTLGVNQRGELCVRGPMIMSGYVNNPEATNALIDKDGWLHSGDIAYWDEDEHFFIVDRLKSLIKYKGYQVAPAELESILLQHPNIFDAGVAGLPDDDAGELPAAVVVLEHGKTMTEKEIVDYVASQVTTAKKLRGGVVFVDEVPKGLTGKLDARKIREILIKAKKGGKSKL

Compound: O=C(CCc1ccc(Oc2cc([N+](=O)[O-])cc([N+](=O)[O-])c2)cc1)N1CCCCC1
- CC50 [1]: > 40 µM (active)
- IC50 (cells): 11.4 µM (active)

Compound: O=C(c1cnccn1)N1CCC2(CC1)CCN(c1ccccn1)CC2
- AC50 (Cytochrome P450 3A4 [2]): inconclusive

Compound: Cc1cc(=O)n2c(n1)SCOC2
- IC50 (Coagulation factor XII): > 50 µM (inactive)

Compound: COc1cc(NCCCn2cnc3c(OCc4ccccc4)ncnc32)cc(OC)c1OC
- IC50 [3]: > 80 µM (inactive)

Compound: CNC(=O)c1ccc(N(Cc2ccccc2)S(C)(=O)=O)cc1
- IC50 (Coagulation factor XII): > 50 µM (inactive)

Compound: COc1ccc(CCc2cc(OC)c(OC)c(OC)c2)cc1
- CC50 (Vero): 1.66 µM (active)

Compound: CCCCNc1nc2ccccc2[nH]1
- EC50 [4]: 2.99 µM (active)

Compound: N=C(N)NC(=N)Nc1cccc(Cl)c1
- AC50 (Cytochrome P450 2D6): 25.1 µM (inconclusive) and 39.8 µM (inconclusive)
- AC50 (Cytochrome P450 3A4 [5]): 79.4 µM (inconclusive)
- AC50 (Cytochrome P450 3A4 [2]): inconclusive

Compound: COc1ccc(CCN(C)CCN2C(=O)c3ccccc3C2=O)cc1OC
- EC50 [4]: 1.88 µM (active)
- EC50 [6]: 1.06 µM (active)

Compound: O=C(C1CCN(CC2CC=CCC2)CC1)N(CCc1ccccc1)Cc1ccccc1 (stereo not drawn)
- EC50 [4]: 2.66 µM (active)

Compound: CCN(CC)CCCN(C(=O)c1ccccc1F)c1nc(-c2ccc(OC)cc2)cs1
- CC50 (Vero): 17.6 µM (active)

Compound: Cc1ccc(C(=O)ONc2ccc(N=O)cc2)cc1
- EC50 [7]: < 0.088 µM (active)
- EC50 [8]: 2.69 µM (active)
- IC50 (Coagulation factor XII): 29.8 µM (active)
